The nature of the data set: Storage Stability Test (coating fluid). It is filed as physicochemical. More on the design: key: Excellent: Turbidity or the like derived from crystal precipitation is not present even after storage of coating fluid; Bad: Turbidity or the like derived from precipitation of the charge transport substance is present after storage of coating fluid. The following applies: charge transport layer coating fluid (60 parts substance, 100 parts polycarbonate PD, tetrahydrofuran/toluene 8/2) stored at −5 to 0° C. for 2 months, checked for turbidity. The procedure: As the binder resin, the polycarbonate resin (Mv=39,200) having a repeating unit represented by the structural formula (PD) was used. Then, 60 parts by mass of the charge transport substance, 100 parts by mass of the binder resin, 2 parts by mass of an antioxidant having a structure represented by the following formula (AOX2), and 0.05 parts by mass of a silicone oil as a leveling agent were dissolved in 540 parts by mass of a mixed solvent of tetrahydrofuran/toluene (mass ratio: 8/2) to prepare a charge transport layer coating fluid for coating fluid storage stability test.
The coating fluid obtained was placed in a glass sealed bottle and stored under the condition of −5 to 0° C. for 2 months. Then, it was checked whether turbidity or the like occurred or not in the coating fluid after storage, thereby evaluating the coating fluid storage stability.
The charge transport substances used in evaluation, the results of stability evaluation, and the criteria for the coating fluid stability are shown in the following Table-6.

For the compound `CCOc1ccc(N(c2ccc(/C=C/c3ccc(N(c4ccc(C)cc4)c4ccc(C)cc4)cc3)cc2)c2ccc(/C=C/c3ccc(N(c4ccc(C)cc4)c4ccc(C)cc4)cc3)cc2)cc1` [CTM1], the Storage stability entry is recorded as “Excellent”.
In the case of `Cc1ccc(N(c2ccc(C)cc2)c2ccc(/C=C/c3ccc(N(c4ccc(C)cc4)c4ccc(/C=C/c5ccc(N(c6ccc(C)cc6)c6ccc(C)cc6)cc5)cc4)cc3)cc2)cc1` [RCTM1], the Storage stability result was “Bad”.

The values above are taken from patent publication US9507284B2, “Electrophotographic photoreceptor, electrophotographic photoreceptor cartridge, image-forming apparatus, and triarylamine compound” (MITSUBISHI CHEMICAL CORPORATION, priority 2012, dated 2016).
